From ChEMBL document CHEMBL5316328, “Discovery of AXL Degraders with Improved Potencies in Triple-Negative Breast Cancer (TNBC) Cells” (J Med Chem, 2023)
The source made the active and inactive calls. The calls are words filed in the database; no cut-off is given here.

What was measured:
MDA-MB-231 [1] = assay: Induction of apoptosis in human MDA-MB-231 cells assessed as early apoptotic cells at 300 nM incubated for 48 hrs by Annexin V-PE staining based flow cytometric analysis (reference value: 3.95 to 3.74%); assay type: functional
MDA-MB-231 [2] = assay: Induction of apoptosis in human MDA-MB-231 cells assessed as early apoptotic cells at 100 nM incubated for 48 hrs by Annexin V-PE staining based flow cytometric analysis (reference value: 3.95 to 3.74%); assay type: functional
MDA-MB-231 [3] = assay: Induction of apoptosis in human MDA-MB-231 cells assessed as necrotic cells at 33.3 nM incubated for 48 hrs by Annexin V-PE staining based flow cytometric analysis (reference value: 2.64 to 3.23%); assay type: functional
[4] = target: Eukaryotic peptide chain release factor GTP-binding subunit ERF3A (Homo sapiens) (UniProt P15170); assay: Induction of GSPT1 degradation in human MDA-MB-231 cells at 0.016 to 10 nM incubated for 24 hrs by Western blot analysis; assay type: cell-based; conditions: dose 0.016-10 nM
MDA-MB-231 [5] = assay: Induction of apoptosis in human MDA-MB-231 cells assessed as viable cells at 33.3 nM incubated for 48 hrs by Annexin V-PE staining based flow cytometric analysis (reference value: 92.59 to 92.71%); assay type: functional; conditions: read-out: Activity
MDA-MB-231 [6] = assay: Induction of cell cycle arrest in human MDA-MB-231 cells assessed as S phase cells at 300 nM incubated for 24 hrs by PI staining based flow cytometric analysis (reference value: 9.64 to 10.79%); assay type: functional
MDA-MB-231 [7] = assay: Induction of apoptosis in human MDA-MB-231 cells assessed as late apoptotic cells at 33.3 nM incubated for 48 hrs by Annexin V-PE staining based flow cytometric analysis (reference value: 0.32 to 0.82%); assay type: functional
[8] = target: T1, Protein cereblon/Tyrosine-protein kinase receptor UFO (Homo sapiens, UniProt P30530+Q96SW2); assay: PROTAC activity at CRBN/AXL in human MDA-MB-231 cells assessed as induction of AXL degradation at 40 nM incubated for 18 to 24 hrs by Western blot analysis; assay type: cell-based; conditions: time 18-24 hrs
MDA-MB-231 [9] = assay: Induction of apoptosis in human MDA-MB-231 cells assessed as necrotic cells at 100 nM incubated for 48 hrs by Annexin V-PE staining based flow cytometric analysis (reference value: 2.64 to 3.23%); assay type: functional
[10] = target: T1, Protein cereblon/Tyrosine-protein kinase receptor UFO; assay: PROTAC activity at CRBN/AXL in human MDA-MB-231 cells assessed as induction of AXL degradation by measuring maximal efficacy at 0.08 uM incubated for 24 hrs by Western blot analysis relative to control; assay type: cell-based
[11] = target: T2, E3 ubiquitin-protein ligase ZFP91 (Homo sapiens) (UniProt Q96JP5); assay: Induction of ZFP91 degradation in human MDA-MB-231 cells at 10 uM incubated for 24 hrs by Western blot analysis; assay type: cell-based
T2 sequence (whole entry): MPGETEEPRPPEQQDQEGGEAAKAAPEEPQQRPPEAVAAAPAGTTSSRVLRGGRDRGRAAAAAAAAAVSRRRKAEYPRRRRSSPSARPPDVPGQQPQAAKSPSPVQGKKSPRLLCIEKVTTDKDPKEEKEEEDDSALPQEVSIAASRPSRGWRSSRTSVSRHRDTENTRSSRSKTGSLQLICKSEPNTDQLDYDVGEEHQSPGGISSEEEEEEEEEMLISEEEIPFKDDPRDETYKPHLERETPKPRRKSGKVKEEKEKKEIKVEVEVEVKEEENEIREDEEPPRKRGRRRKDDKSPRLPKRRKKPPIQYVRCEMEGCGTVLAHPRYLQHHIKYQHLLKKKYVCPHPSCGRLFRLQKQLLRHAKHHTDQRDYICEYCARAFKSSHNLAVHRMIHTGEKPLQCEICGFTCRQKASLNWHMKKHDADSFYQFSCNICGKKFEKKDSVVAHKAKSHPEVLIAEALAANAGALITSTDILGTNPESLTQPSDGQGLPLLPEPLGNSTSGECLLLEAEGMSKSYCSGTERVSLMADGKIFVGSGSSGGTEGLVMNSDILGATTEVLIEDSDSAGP

[12] = target: T1, Protein cereblon/Tyrosine-protein kinase receptor UFO; assay: PROTAC activity at CRBN/AXL in human MDA-MB-436 cells expressing AXL assessed as induction of AXL degradation at 1.6 to 1000 nM incubated for 24 hrs by Western blot analysis; assay type: cell-based; conditions: dose 1.6-1000 nM
MDA-MB-231 [13] = assay: Induction of apoptosis in human MDA-MB-231 cells assessed as viable cells at 100 nM incubated for 48 hrs by Annexin V-PE staining based flow cytometric analysis (reference value: 92.59 to 92.71%); assay type: functional; conditions: read-out: Activity
Homo sapiens = organism: Homo sapiens; assay: Antitumor activity against patient-derived breast cancer organoid assessed as decrease in structure density at 5 uM incubated for 120 hrs by bright-field imaging microscopic analysis; assay type: functional, tissue-based
[14] = target: ALK tyrosine kinase receptor (Homo sapiens, UniProt Q9UM73); assay: Inhibition of ALK (unknown origin)
MDA-MB-231 [15] = assay: Induction of cell cycle arrest in human MDA-MB-231 cells assessed as decrease in cyclin B1 level at 11.1 to 300 nM by Western blot analysis; assay type: functional, cell-based; conditions: dose 11.1-300 nM
MDA-MB-231 [16] = assay: Induction of apoptosis in human MDA-MB-231 cells assessed as late apoptotic cells at 100 nM incubated for 48 hrs by Annexin V-PE staining based flow cytometric analysis (reference value: 0.32 to 0.82%); assay type: functional
MDA-MB-231 [17] = assay: Antiproliferative activity against human MDA-MB-231 cells expressing AXL assessed as inhibition of cell growth incubated for 72 hrs by CCK8 assay; assay type: functional, cell-based; conditions: MDA-MB-231, 72 h
Mus musculus = assay: In vivo PROTAC activity at CRBN/AXL in human MDA-MB-231 cells xenografted Balb/c mouse assessed as degradation of AXL in tumor at 10 to 20 mg/kg, ip administered for 22 days and measured 24 hrs post last dose by Western blot analysis; assay type: functional, organism-based; conditions: dose 10-20 mg/kg, time 23.0 day
[18] = target: T1, Protein cereblon/Tyrosine-protein kinase receptor UFO; assay: PROTAC activity at CRBN/AXL in human MDA-MB-231 cells assessed as induction of AXL degradation by measuring ubiquitination of AXL at 40 nM preincubated with MG-132 for 2 hrs followed by compound treatment and measured after 24 hrs by coimmunoprecipitation analysis; assay type: cell-based
MDA-MB-231 [19] = assay: Induction of cell cycle arrest in human MDA-MB-231 cells assessed as S phase cells at 100 nM incubated for 24 hrs by PI staining based flow cytometric analysis (reference value: 9.64 to 10.79%); assay type: functional
MDA-MB-231 [20] = assay: Induction of apoptosis in human MDA-MB-231 cells assessed as late apoptotic cells at 300 nM incubated for 48 hrs by Annexin V-PE staining based flow cytometric analysis (reference value: 0.32 to 0.82%); assay type: functional
MDA-MB-231 [21] = assay: Inhibition of migration in human MDA-MB-231 cells incubated for 18 hrs by transwell assay; assay type: functional, cell-based; conditions: dose 3.7-100 nM
[22] = target: T1, Protein cereblon/Tyrosine-protein kinase receptor UFO; assay: PROTAC activity at CRBN/AXL in human MDA-MB-231 cells assessed as induction of AXL degradation at 40 nM preincubated with MG-132 for 2 hrs followed by compound treatment and measured after 24 hrs by Western blot analysis; assay type: cell-based
MDA-MB-231 [23] = assay: Inhibition of cell invasion in human MDA-MB-231 cells at 3.7 to 100 nM incubated for 18 hrs by transwell assay; assay type: functional, cell-based; conditions: dose 3.7-100 nM

T1 sequence (P30530 26-894 limits assumed): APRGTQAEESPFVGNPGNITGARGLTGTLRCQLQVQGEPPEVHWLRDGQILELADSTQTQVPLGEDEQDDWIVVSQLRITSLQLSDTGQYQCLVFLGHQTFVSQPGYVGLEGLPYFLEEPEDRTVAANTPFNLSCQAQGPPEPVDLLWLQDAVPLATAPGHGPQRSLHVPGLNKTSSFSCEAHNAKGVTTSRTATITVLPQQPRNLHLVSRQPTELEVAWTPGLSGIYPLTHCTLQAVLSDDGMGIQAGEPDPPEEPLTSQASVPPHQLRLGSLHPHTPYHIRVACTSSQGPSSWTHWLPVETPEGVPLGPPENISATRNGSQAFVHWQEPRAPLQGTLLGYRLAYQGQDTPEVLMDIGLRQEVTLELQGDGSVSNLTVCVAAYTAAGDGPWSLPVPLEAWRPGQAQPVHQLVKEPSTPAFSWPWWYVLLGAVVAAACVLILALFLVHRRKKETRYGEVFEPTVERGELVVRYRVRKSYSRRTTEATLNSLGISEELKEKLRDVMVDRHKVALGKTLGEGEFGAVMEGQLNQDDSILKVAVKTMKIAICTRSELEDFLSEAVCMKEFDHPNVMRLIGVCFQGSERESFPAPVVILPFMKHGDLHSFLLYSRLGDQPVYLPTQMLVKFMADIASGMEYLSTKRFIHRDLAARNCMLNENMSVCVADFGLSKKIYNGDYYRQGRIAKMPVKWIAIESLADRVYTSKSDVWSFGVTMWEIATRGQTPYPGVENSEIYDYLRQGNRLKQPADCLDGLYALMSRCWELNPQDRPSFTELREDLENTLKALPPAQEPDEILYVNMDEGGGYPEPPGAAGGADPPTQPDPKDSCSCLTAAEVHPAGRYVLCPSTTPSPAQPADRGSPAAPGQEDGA
T1 sequence (Q96SW2 whole entry partner): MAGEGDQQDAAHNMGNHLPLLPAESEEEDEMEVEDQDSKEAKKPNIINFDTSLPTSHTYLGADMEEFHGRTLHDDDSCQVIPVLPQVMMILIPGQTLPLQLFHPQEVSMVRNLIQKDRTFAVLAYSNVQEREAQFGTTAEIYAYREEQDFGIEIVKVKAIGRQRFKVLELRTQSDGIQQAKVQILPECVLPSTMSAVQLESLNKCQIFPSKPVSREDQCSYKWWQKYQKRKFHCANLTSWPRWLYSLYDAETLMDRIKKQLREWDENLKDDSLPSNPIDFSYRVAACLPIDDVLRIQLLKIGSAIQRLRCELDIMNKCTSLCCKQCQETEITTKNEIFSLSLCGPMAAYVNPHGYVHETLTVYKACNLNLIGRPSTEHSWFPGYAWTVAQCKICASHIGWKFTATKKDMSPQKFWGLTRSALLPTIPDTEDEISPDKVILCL
ALK tyrosine kinase receptor, sequence (Q9UM73 whole entry): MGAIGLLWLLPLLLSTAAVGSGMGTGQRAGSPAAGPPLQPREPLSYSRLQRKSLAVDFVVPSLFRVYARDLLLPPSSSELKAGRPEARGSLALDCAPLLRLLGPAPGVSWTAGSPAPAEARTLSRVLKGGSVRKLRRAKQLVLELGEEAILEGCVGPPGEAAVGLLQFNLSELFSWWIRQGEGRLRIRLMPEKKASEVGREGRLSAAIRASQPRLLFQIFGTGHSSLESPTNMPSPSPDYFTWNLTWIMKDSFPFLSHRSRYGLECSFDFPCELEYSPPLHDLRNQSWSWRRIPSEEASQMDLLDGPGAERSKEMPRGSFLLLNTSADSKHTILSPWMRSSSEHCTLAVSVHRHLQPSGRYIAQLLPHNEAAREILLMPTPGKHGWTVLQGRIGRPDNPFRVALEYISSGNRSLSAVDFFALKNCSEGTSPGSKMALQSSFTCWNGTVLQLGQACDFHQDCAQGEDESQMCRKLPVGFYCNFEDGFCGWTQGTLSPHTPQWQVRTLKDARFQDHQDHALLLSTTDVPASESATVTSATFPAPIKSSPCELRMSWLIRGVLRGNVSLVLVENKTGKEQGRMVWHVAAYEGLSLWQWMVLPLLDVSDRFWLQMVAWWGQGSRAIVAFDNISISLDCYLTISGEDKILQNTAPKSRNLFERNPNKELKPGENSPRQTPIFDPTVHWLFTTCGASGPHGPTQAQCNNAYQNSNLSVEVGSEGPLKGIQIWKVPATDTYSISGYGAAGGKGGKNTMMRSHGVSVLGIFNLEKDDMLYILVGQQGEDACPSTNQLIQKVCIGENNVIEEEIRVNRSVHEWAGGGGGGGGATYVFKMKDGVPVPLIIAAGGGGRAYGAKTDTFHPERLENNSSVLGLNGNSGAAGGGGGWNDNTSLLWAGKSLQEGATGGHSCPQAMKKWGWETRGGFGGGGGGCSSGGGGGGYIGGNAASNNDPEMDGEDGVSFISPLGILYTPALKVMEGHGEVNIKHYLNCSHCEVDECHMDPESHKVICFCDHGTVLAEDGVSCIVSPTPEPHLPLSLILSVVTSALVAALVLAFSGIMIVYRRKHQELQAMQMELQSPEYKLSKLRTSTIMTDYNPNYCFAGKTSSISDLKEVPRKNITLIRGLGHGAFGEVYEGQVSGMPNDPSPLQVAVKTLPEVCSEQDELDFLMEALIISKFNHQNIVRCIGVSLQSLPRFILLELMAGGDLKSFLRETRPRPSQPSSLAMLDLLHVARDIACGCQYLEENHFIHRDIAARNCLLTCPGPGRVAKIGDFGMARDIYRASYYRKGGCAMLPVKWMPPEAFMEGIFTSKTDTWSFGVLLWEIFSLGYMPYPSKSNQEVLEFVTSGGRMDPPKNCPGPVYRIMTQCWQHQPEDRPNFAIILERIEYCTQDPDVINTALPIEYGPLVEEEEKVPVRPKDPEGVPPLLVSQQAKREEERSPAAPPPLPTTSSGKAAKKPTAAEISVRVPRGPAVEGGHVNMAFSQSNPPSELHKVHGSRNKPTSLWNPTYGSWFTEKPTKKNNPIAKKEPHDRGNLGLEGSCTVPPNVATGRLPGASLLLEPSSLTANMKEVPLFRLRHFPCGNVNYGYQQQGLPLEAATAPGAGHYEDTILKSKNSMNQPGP
Eukaryotic peptide chain release factor GTP-binding subunit ERF3A (Homo sapiens), sequence (P15170 whole entry): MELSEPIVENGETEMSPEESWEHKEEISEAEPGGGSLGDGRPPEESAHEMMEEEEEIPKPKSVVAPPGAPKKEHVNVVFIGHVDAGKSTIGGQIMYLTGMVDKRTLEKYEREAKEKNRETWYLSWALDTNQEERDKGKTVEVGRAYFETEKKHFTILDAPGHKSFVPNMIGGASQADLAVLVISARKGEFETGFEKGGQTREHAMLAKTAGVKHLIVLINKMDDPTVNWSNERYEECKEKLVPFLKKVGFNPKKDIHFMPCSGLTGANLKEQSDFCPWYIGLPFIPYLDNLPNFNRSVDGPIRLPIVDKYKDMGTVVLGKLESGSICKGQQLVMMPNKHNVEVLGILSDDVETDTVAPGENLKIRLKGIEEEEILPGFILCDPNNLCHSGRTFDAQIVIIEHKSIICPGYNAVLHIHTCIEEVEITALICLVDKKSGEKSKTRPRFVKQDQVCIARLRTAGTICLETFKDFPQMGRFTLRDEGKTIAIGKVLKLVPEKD

SMILES: CCc1ccc2c(c1)c(=O)c(C(=O)Nc1ccc(Oc3ncnc4cc(OCCCCCC(=O)Nc5ccc6c(c5)CN(C5CCC(=O)NC5=O)C6=O)c(OC)cc34)c(F)c1)c(C)n2C (stereo not given)
- Activity (MDA-MB-231 [1]): 20.49%
- Activity (MDA-MB-231 [2]): 14.51%
- Activity (MDA-MB-231 [3]): 1.2%
- Activity [4]: Active
- viability at 0.0333 µM (MDA-MB-231 [5]): 91.5%
- Activity (MDA-MB-231 [6]): 16.29%
- Activity (MDA-MB-231 [7]): 0.56%
- Activity [8]: Active
- Activity (MDA-MB-231 [9]): 1.17%
- Emax [10]: 80.5%
- Activity [11]: inactive
- Activity [12]: Active
- viability at 0.1 µM (MDA-MB-231 [13]): 83.4%
- Activity (Homo sapiens): Active
- IC50 [14]: 4.94 nM
- Activity (MDA-MB-231 [15]): Active
- Activity (MDA-MB-231 [16]): 0.88%
- IC50 (MDA-MB-231 [17]): 10 nM
- Activity (Mus musculus): Active
- Activity [18]: inactive
- Activity (MDA-MB-231 [19]): 15.78%
- Activity (MDA-MB-231 [20]): 0.79%
- inhibition (MDA-MB-231 [21]): Dose-Dependent Effect
- Activity [22]: inactive
- inhibition (MDA-MB-231 [23]): Active
